Reference: patent publication US7709491B2, “Substituted quinazolines as antiviral agents, especially against cytomegaloviruses” (Bayer Schering Pharma Aktiengesellschaft, priority 2002, dated 2010)

Legend:
HCMV = test: Anti-HCMV cytopathogenicity test; format: cell-based, human cytomegalovirus; conditions: for EC50: inhibition of CPE by 50% vs untreated virus control, HCMV-infected NHDF cells, M.O.I. 0.001-0.002, 6 days; for SI HCMV (selectivity index = CC50 (NHDF)/EC50 (HCMV)): ratio CC50 (NHDF)/EC50 (HCMV)
Method: Anti-HCMV (Anti-Human Cytomegalovirus) Cytopathogenicity Tests The test compounds are employed as 50 millimolar (mM) solutions in dimethyl sulfoxide (DMSO). Ganciclovir, foscamet and cidofovir are used as reference compounds. After addition of in each case 2 μl of the 50, 5, 0.5 and 0.05 mM DMSO stock solutions to 98 μl portions of cell culture medium in row […] for duplicate determinations, 1:2 dilutions are carried out with 50 μl portions of medium up to row 11 of the 96-well plate. The wells in rows 1 and 12 each contain 50 μl of medium. 150 μl of a suspension of 1×10^4 cells (human prepuce fibroblasts [NHDF]) are then pipetted into each of the wells (row 1=cell control) and, in rows 2-12, a mixture of HCMV-infected and uninfected NHDF cells (M.O.I.=0.001-0.002), i.e. 1-2 infected cells per 1000 uninfected cells. Row 12 (without substance) serves as virus control. The final test concentrations are 250-0.0005 μM. The plates are incubated at 37° C./5% CO2 for 6 days, i.e. until all the cells are infected in the virus controls (100% cytopathogenic effect [CPE]). The wells are then fixed and stained by adding a mixture of formalin and Giemsa's dye (30 minutes), washed with double-distilled water and dried in a drying oven at 50° C. The plates are then assessed visually using an overhead microscope (plaque multiplier from Technomara). The following data can be acquired from the test plates: EC50 (HCMV)=substance concentration in μM which inhibits the CPE (cytopathic effect) by 50% compared with the untreated virus control; SI (selectivity index)=CC50 (NHDF)/EC50 (HCMV).

[1] = tested on: NHDF cells (human prepuce fibroblasts); test: Cytotoxicity on NHDF cells in the anti-HCMV cytopathogenicity test; format: cell-based; conditions: 6 days incubation, visual assessment of cytotoxic effects vs untreated cell control
Method: (§1) Anti-HCMV (Anti-Human Cytomegalovirus) Cytopathogenicity Tests The test compounds are employed as 50 millimolar (mM) solutions in dimethyl sulfoxide (DMSO). Ganciclovir, foscamet and cidofovir are used as reference compounds. After addition of in each case 2 μl of the 50, 5, 0.5 and 0.05 mM DMSO stock solutions to 98 μl portions of cell culture medium in row […] for duplicate determinations, 1:2 dilutions are carried out with 50 μl portions of medium up to row 11 of the 96-well plate. The wells in rows 1 and 12 each contain 50 μl of medium. 150 μl of a suspension of 1×10^4 cells (human prepuce fibroblasts [NHDF]) are then pipetted into each of the wells (row 1=cell control) and, in rows 2-12, a mixture of HCMV-infected and uninfected NHDF cells (M.O.I.=0.001-0.002), i.e. 1-2 infected cells per 1000 uninfected cells. Row 12 (without substance) serves as virus control. The final test concentrations are 250-0.0005 μM. The plates are incubated at 37° C./5% CO2 for 6 days, i.e. until all the cells are infected in the virus controls (100% cytopathogenic effect [CPE]). The wells are then fixed and stained by adding a mixture of formalin and Giemsa's dye (30 minutes), washed with double-distilled water and dried in a drying oven at 50° C. The plates are then assessed visually using an overhead microscope (plaque multiplier from Technomara). The following data can be acquired from the test plates: CC50 (NHDF)=substance concentration in […] at which no visible cytotoxic effects on the cells are evident by comparison with the untreated cell control;

[2] = as above; format: cell-based; conditions: human, NHDF cells (human prepuce fibroblasts), 6 days incubation, visual assessment of cytotoxic effects vs untreated cell control
Method: as §1

[3] = Human betaherpesvirus 5, NHDF, 144 h

| Structure (SMILES) | EC50 (HCMV) [µM] | SI HCMV (selectivity index = CC50 (NHDF)/EC50 (HCMV)) (HCMV) | CC50 [1] [µM] | CC50 at 6 days [2] [µM] | EC50 (HCMV; [3]) [µM] |
| --- | --- | --- | --- | --- | --- |
| Cc1cccc(-c2ccc(C3=Nc4c(F)cccc4C(CC(=O)O)N3c3cccc(C(F)(F)F)c3)cc2)c1 (racemic) [Example 4, {8-Fluoro-2-(3′-methyl-1,1′-biphenyl-4-yl)-3-[3-(trifluoromethyl)phenyl]-3,4-dihydro-4-quinazolinyl}acetic acid] | 0.06 | 143 | 8.6 |  |  |
| O=C(O)CC1c2cccc(F)c2N=C(c2ccc(-c3ccc(F)cc3)cc2)N1c1cccc(C(F)(F)F)c1 (racemic) [Example 2, {8-Fluoro-2-(4′-fluoro-1,1′-biphenyl-4-yl)-3-[3-(trifluoromethyl)phenyl]-3,4-dihydro-4-quinazolinyl}acetic acid] | 0.07 | 171 | 12 |  |  |
| Cc1cccc(-c2ccc(C3=Nc4c(F)cccc4C(CC(=O)O)N3c3cccc(C(F)(F)F)c3)cc2)c1 (racemic) [Example 3, {8-Fluoro-2-(3′-methyl-1,1′-biphenyl-4-yl)-3-[3-(trifluoromethyl)phenyl]-3,4-dihydro-4-quinazolinyl}acetic acid] | 0.13 | 115 |  | 15 |  |
| O=C(O)CC1c2cccc(F)c2N=C(c2ccc(-c3ccc(F)cc3)cc2F)N1c1cccc(C(F)(F)F)c1 (stereo not drawn) [Example 7, {2-(3,4′-Difluoro-1,1′-biphenyl-4-yl)-8-fluoro-3-[3-(trifluoromethyl)phenyl]-3,4-dihydro-4-quinazolinyl}acetic acid] |  | 17 |  | 31 | 1.8 |
| Cc1cc(-c2ccc(C3=Nc4c(F)cccc4C(CC(=O)O)N3c3cccc(C(F)(F)F)c3)cc2)ccc1F (stereo not drawn) [Example 5, {8-Fluoro-2-(4′-fluoro-3′-methyl-1,1′-biphenyl-4-yl)-3-[3-(trifluoromethyl)phenyl]-3,4-dihydro-4-quinazolinyl}acetic acid] |  | 16 |  | 12 | 0.74 |
| COc1ccc(C(F)(F)F)cc1N1C(c2ccc(-c3ccc(F)cc3)cc2)=Nc2c(F)cccc2C1CC(=O)O (racemic) [Example 32, {2-[4-(4-Fluorophenyl)phenyl]-8-fluoro-3-[2-methoxy-5-(trifluoromethyl)phenyl]-3,4-dihydro-4-quinazolinyl}acetic acid] |  | 1500 |  | 15 | 0.01 |
| COc1cccc(-c2ccc(C3=Nc4c(F)cccc4C(CC(=O)O)N3c3cc(C(F)(F)F)ccc3OC)cc2)c1 (racemic) [Example 36, {2-[4-(3-Methoxyphenyl)phenyl]-8-fluoro-3-[2-methoxy-5-(trifluoromethyl)phenyl]-3,4-dihydro-4-quinazolinyl}acetic acid] |  | 1500 |  | 15 | 0.01 |
| O=C(O)CC1c2cccc(F)c2N=C(c2ccc(-c3ccc(F)cc3)cc2)N1c1cccc(C(F)(F)F)c1 (racemic) [Example 1] |  | 150 |  | 15 | 0.1 |
| O=C(O)CC1c2cccc(F)c2N=C(c2ccc(-c3cccc(F)c3)cc2)N1c1cccc(C(F)(F)F)c1 (stereo not drawn) [Example 6, {8-Fluoro-2-(3′-fluoro-1,1′-biphenyl-4-yl)-3-[3-(trifluoromethyl)phenyl]-3,4-dihydro-4-quinazolinyl}acetic acid] |  | 34 |  | 12 | 0.35 |
